Molecular target: T1, Human CARM1 (PRMT4) (Homo sapiens, UniProt Q86X55)
T1 construct: Flag-CARM1-His; made in house; host or cells: HEK 293F cells (BacMam baculovirus)
T1 sequence (Q86X55 1-585 isoform Q86X55-1): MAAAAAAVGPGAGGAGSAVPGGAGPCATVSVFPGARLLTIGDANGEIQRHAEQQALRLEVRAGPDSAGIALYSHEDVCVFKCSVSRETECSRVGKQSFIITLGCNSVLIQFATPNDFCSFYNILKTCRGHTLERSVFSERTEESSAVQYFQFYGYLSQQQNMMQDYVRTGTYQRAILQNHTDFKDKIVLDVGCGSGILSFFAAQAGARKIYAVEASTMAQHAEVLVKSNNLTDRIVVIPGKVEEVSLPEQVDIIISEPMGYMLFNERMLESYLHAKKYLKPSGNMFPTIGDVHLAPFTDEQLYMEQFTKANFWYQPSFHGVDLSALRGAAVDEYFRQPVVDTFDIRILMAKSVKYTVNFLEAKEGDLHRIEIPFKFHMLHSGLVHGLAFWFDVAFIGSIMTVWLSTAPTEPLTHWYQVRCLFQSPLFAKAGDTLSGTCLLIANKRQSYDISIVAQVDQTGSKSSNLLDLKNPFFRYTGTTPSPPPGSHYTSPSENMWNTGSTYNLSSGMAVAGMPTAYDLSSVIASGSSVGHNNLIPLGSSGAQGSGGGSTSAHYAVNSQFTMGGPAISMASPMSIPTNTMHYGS
Experiment: CARM1 Biochemical Assay
Text: General Materials. S-adenosylmethionine (SAM), S-adenosylhomocysteine (SAH), bicine, Tween20, dimethylsulfoxide (DMSO), bovine skin gelatin (BSG), sodium butyrate and Tris(2-carboxyethyl)phosphine hydrochloride solution (TCEP) were purchased from Sigma-Aldrich at the highest level of purity possible. ^3H-SAM was purchase from American Radiolabeled Chemicals with a specific activity of 80 Ci/mmol. 384-well streptavidin Flashplates were purchased from PerkinElmer.
Substrates. Peptide representative of human histone H3 residues 16-30 was synthesized with an N-terminal linker-affinity tag motif and a C-terminal amide cap by 21st Century Biochemicals. The peptide was purified by high-performance liquid chromatography (HPLC) to greater than 95% purity and confirmed by liquid chromatography mass spectrometry (LC-MS). The sequence was Biot-Ahx-[…]-amide and contained a monomethylated arginine at position 26 (SEQ ID NO.: 14).
Molecular Biology: Human CARM1 (PRMT4) (NM_199141.1) transcript clone was amplified from an HEK 293 cDNA library, incorporating a flanking 5′ sequence encoding a FLAG tag ([…]) (SEQ ID NO.:6) fused directly to Ala 2 of CARM1 and 3′ sequence encoding a hexa His sequence ([…]) (SEQ ID NO.: 15) fused directly to Ser 608. The gene sequence encoding isoform1 containing a deletion of amino acids 539-561 was amplified subsequently and subcloned into pFastBacMam (Viva Biotech).
Protein Expression. Recombinant baculovirus were generated according to Bac-to-Bac kit instructions (Life Technologies). […] Infections were carried out at 37° C. for 48 hours, harvested by centrifugation, and stored at −80° C. for purification.
Protein Purification. […] Column was washed with 500 mM NaCl in buffer A and Flag-CARM1-His was eluted with 200 ug/ml FLAG peptide in buffer A. Pooled fractions were dialyzed in 20 mM Tris, 150 mM NaCl, 5% glycerol and 1 mM DTT, pH 7.8. The purity of recovered protein was 94.
General Procedure for CARM1 Enzyme Assays on Peptide Substrates. The assays were all performed in a buffer consisting of 20 mM Bicine (pH=7.6), 1 mM TCEP, 0.005% BSG, and 0.002% Tween 20, prepared on the day of use. Compounds in 100% DMSO (1 ul) were spotted into a polypropylene 384-well V-bottom plates (Greiner) using a Platemate Plus outfitted with a 384-channel head (Thermo Scientific). DMSO (1 ul) was added to Columns 11, 12, 23, 24, rows A-H for the maximum signal control and 1 ul of SAH, a known product and inhibitor of CARM1, was added to columns 11, 12, 23, 24, rows I-P for the minimum signal control. A cocktail (40 ul) containing the CARM1 enzyme was added by Multidrop Combi (Thermo-Fisher). The compounds were allowed to incubate with CARM1 for 30 min at room temperature, then a cocktail (10 ul) containing ^3H-SAM and peptide was added to initiate the reaction (final volume=51 ul). The final concentrations of the components were as follows: CARM1 was 0.25 nM, ^3H-SAM was 30 nM, peptide was 250 nM, SAH in the minimum signal control wells was 1 mM, and the DMSO concentration was 2%. The assays were stopped by the addition of non-radiolabeled SAM (10 ul) to a final concentration of 300 uM, which dilutes the ^3H-SAM to a level where its incorporation into the peptide substrate is no longer detectable. 50 ul of the reaction in the 384-well polypropylene plate was then transferred to a 384-well Flashplate and the biotinylated peptides were allowed to bind to the streptavidin surface for at least 1 hour before being washed once with 0.1% Tween20 in a Biotek EL×405 plate washer. The plates were then read in a PerkinElmer TopCount plate reader to measure the quantity of ^3H-labeled peptide bound to the Flashplate surface, measured as disintegrations per minute (dpm) or alternatively, referred to as counts per minute (cpm).
Where dpm=disintegrations per minute, cmpd=signal in assay well, and min and max are the respective minimum and maximum signal controls. […]

[1] = PRMT4 IC50, biochemical evaluation, CARM1 (PRMT4), peptide substrate
[2] = PRMT4 biochemical evaluation (numerical), single experiment or average of multiple experiments

Structure (SMILES) | IC50 [1] [nM] | IC50 [2] [nM]
CCCOc1ccc2[nH]nc(CN(C)CCNC)c2c1 [Compound 65] | 101 to 1000 | 4940
CNCCN(C)Cc1n[nH]c2cccc(OCCCC(O)CO)c12 (stereo not shown) [Compound 41, 5-((3-((methyl(2-(methylamino)ethyl)amino)methyl)-1H-indazol-4-yl)oxy)pentane-1,2-diol] | 1010 to 3000 | 240
CNCCN(C)Cc1n[nH]c2ccc(OCc3ccn(C)n3)cc12 [Compound 20] | – | 153
CNCCN(C)Cc1n[nH]c2ccc(OC(C)C)cc12 [Compound 64] | 1010 to 3000 | 1960
CNCCN(C)Cc1n[nH]c2ccc(Oc3ccc(OC)cc3)cc12 [Compound 59] | < 100 | 313
CNCCN(C)Cc1n[nH]c2ccc(Oc3cccc(OC)c3)cc12 [Compound 22] | 101 to 1000 | –
CNCCN(C)Cc1n[nH]c2ccc(Oc3ccccc3Cl)cc12 [Compound 30] | 101 to 1000 | 2340
CNCCN(C)Cc1n[nH]c2ccc(OC3CCCCC3)cc12 [Compound 18] | 101 to 1000 | –
CNCCN(C)Cc1n[nH]c2ccc(C3=CCOCC3)cc12 [Compound 45] | 101 to 1000 | 160
CNCCN(C)Cc1n[nH]c2ccc(OC3CCOCC3)cc12 [Compound 29, N^1,N^2-dimethyl-N^1-((5-((tetrahydro-2H-pyran-4-yl)oxy)-1H-indazol-3-yl)methyl)ethane-1,2-diamine] | 101 to 1000 | 446
CNCCN(C)Cc1n[nH]c2ccc(C3CCOCC3)cc12 [Compound 44, N^1,N^2-dimethyl-N^1-((5-(tetrahydro-2H-pyran-4-yl)-1H-indazol-3-yl)methyl)ethane-1,2-diamine] | 101 to 1000 | 1010
CNCCN(C)Cc1n[nH]c2ccc(Oc3ccc(C#N)cc3)cc12 [Compound 37] | 1010 to 3000 | > 10000
CNCCN(C)Cc1n[nH]c2ccc(OCc3ccc(C(C)=O)cc3)cc12 [Compound 23] | 101 to 1000 | –
CNCCN(C)Cc1n[nH]c2ccc(C(C)C)cc12 [Compound 42, N^1-((5-isopropyl-1H-indazol-3-yl)methyl)-N^1,N^2-dimethylethane-1,2-diamine] | 1010 to 3000 | 4050
CNCCN(C)Cc1n[nH]c2cccc(OCCC(C)C)c12 [Compound 31] | – | 423
CNCCN(C)Cc1n[nH]c2ccc(Oc3ccc(C(F)(F)F)cc3)cc12 [Compound 39] | 101 to 1000 | 2880
CNCCN(C)Cc1n[nH]c2ccc(Oc3cccc(Cl)c3)cc12 [Compound 27, N^1-((5-(3-chlorophenoxy)-1H-indazol-3-yl)methyl)-N^1,N^2-dimethylethane-1,2-diamine] | 101 to 1000 | 390
CNCCN(C)Cc1n[nH]c2ccc(Oc3ccccc3OC)cc12 [Compound 24] | < 100 | 115
CCOc1ccc2[nH]nc(CN(C)CCNC)c2c1 [Compound 63] | 3010 to 10000 | 4160
CNCCN(C)Cc1n[nH]c2ccc(Oc3cccc(C)c3)cc12 [Compound 26] | 101 to 1000 | 35.1
CNCCN(C)Cc1n[nH]c2ccc(OC3CCOC3)cc12 (stereo not shown) [Compound 25, N^1,N^2-dimethyl-N^1-((5-((tetrahydrofuran-3-yl)oxy)-1H-indazol-3-yl)methyl)ethane-1,2-diamine] | 101 to 1000 | 932
CNCCN(C)Cc1c2cc(OCc3ccc(C#N)cc3)ccc2nn1C(C)C [Compound 34] | 3010 to 10000 | 310
CNCCN(C)Cc1n[nH]c2ccc(Oc3cccc(C#N)c3)cc12 [Compound 28] | 1010 to 3000 | 260

Next, values leading:

IC50 [1] [nM] | IC50 [2] [nM] | Structure (SMILES)
101 to 1000 | 1770 | CNCCN(C)Cc1n[nH]c2ccc(Oc3ccccc3C)cc12 [Compound 60]
3010 to 10000 | > 10000 | CNCCN(C)Cc1n[nH]c2ccc(OCC3CCCC3)cc12 [Compound 52]
3010 to 10000 | > 10000 | CNCCN(C)Cc1c2cc(OCc3ccc(C#N)cc3)ccc2nn1C1CCOCC1 [Compound 53]
101 to 1000 | 305 | CNCCN(C)Cc1n[nH]c2ccc(OCc3cccc(C(C)(C)C)c3)cc12 [Compound 74]
101 to 1000 | 892 | CNCCN(C)Cc1n[nH]c2ccc(OCc3cccc(C(F)(F)F)c3)cc12 [Compound 72]
101 to 1000 | 333 | CNCCN(C)Cc1n[nH]c2ccc(Oc3ccc(Cl)cc3)cc12 [Compound 57]
101 to 1000 | 4590 | CNCCN(C)Cc1n[nH]c2ccc(OCc3cccc(C(C)=O)c3)cc12 [Compound 73]
3010 to 10000 | > 10000 | CNCCN(C)Cc1n[nH]c2ccc(OCC3CCN(C(C)=O)CC3)cc12 [Compound 51]
101 to 1000 | 3700 | CNCCN(C)Cc1n[nH]c2ccc(OCc3cccc(NC(C)=O)c3)cc12 [Compound 70]
1010 to 3000 | 364 | CNCCN(C)Cc1nn(C(C)C)c2ccc(OCc3ccc(C#N)cc3)cc12 [Compound 62]
3010 to 10000 | 683 | CNCCN(C)Cc1n[nH]c2ccc(Oc3cccc(OC(C)C)c3)cc12 [Compound 67]
101 to 1000 | 259 | CNCCN(C)Cc1n[nH]c2ccc(N3CCCCC3)cc12 [Compound 46, N^1,N^2-dimethyl-N^1-((5-(piperidin-1-yl)-1H-indazol-3-yl)methyl)ethane-1,2-diamine]
3010 to 10000 | 1700 | CNCCN(C)Cc1n[nH]c2ccc(OCc3ccc(C(F)(F)F)cc3)cc12 [Compound 68]
3010 to 10000 | 245 | CNCCN(C)Cc1n[nH]c2ccc(OCC3CCOCC3)cc12 [Compound 50]
3010 to 10000 | > 10000 | CNCCN(C)Cc1n[nH]c2ccc(OCC3CCCCC3)cc12 [Compound 54]
3010 to 10000 | 606 | CNCCN(C)Cc1n[nH]c2ccc(Oc3ccccc3C(F)(F)F)cc12 [Compound 49]
1010 to 3000 | 1910 | CNCCN(C)Cc1n[nH]c2ccc(OCc3cccc(C(N)=O)c3)cc12 [Compound 66]
3010 to 10000 | 3790 | CNCCN(C)Cc1n[nH]c2ccc(OCc3ccc(C(C)(C)C)cc3)cc12 [Compound 71]
1010 to 3000 | 248 | CNCCN(C)Cc1n[nH]c2ccc(OC3CCN(C(C)=O)CC3)cc12 [Compound 58, 1-(4-((3-((methyl(2-(methylamino)ethyl)amino)methyl)-1H-indazol-5-yl)oxy)piperidin-1-yl)ethan-1-one]

Reference: patent US9765035B2 (priority 2013, dated 2017)
